Measurements as given in US10150795B2, “Peptide having antimicrobial activity against pathogens and antimicrobial peptide composition comprising the same” (Hankuk University of Foreign Studies Research & Business …, priority 2016, dated 2018).
Ends that are not written are not given here.

Key:
[1] = in vitro; assay type: cell-based
Procedure: (§1) A cytotoxicity experiment was performed by a test method using a Cyto X™ cell viability assay kit (LPS SOLUTION). A 96-well cell culture plate was purchased from Corning, and mammalian cell lines were purchased from the American Type Culture Collection (ATCC). Also, the CytoX™ cell viability assay kit was purchased from LPS SOLUTION.
(§2) As an experimental method, stored frozen cells were thawed, cultured in a DMEM or RP 11640 medium supplemented with 10% FBS, and then sub-cultured at intervals of 2 to 3 days until a density of the cells reached 80 to 90%. For this experiment, the cells were detached by treating the cells with trypsin-EDTA, and then divided into wells of a 96-well plate so that the number of the cells amounted to 10,000 cells. Thereafter, the cells were cultured at 37° C. for 24 hours in a CO2 incubator. Each of the prepared peptides was diluted with DMSO to concentrations of 10, 1, 0.1, 0.01, and 0.001 mM, and then diluted at 1:100 by adding 1 μl of DMSO or each of the prepared peptides to each well. Then, the cells were cultured at 37° C. for 24 hours in a CO2 incubator. To measure cytotoxicity, 10 μl of each of the peptides prepared using the Cyto X™ cell viability assay kit (LPS SOLUTION) was added to each well. The cells were cultured at 37° C. for 1 to 4 hours in a CO2 incubator, and an optical density was measured at 450 nm using a microplate reader. Then, the measured optical density was calculated as a percentage of a value measured for DMSO, and a graph was plotted using GraphPad Prism 5. Then, an IC50 value was calculated. When each of the IC50 values of the four peptides in each cell line was greater than or equal to 10 μM, the peptides were judged to have no general cytotoxicity.

[2] = in vitro; assay type: cell-based; conditions: mouse
Procedure: as §1, §2

[3] = tested on: CHO-K1 cell line; assay: in vitro; assay type: cell-based
Procedure: as §1, §2

[4] = tested on: Listeria innocua MC2 KCTC 3658, Staphylococcus aureus ATCC 6538, Pseudomonas aeruginosa ATCC 27853, Salmonella ATCC 19430, Escherichia coli KCTC 1682; assay: Minimal inhibitory concentration, standard broth microdilution method; assay type: cell-based; conditions: five strains, 37° C., 12 hours
Procedure: An antimicrobial assay was performed by measuring a minimal inhibitory concentration (MIC) value using a standard broth microdilution method. The antimicrobial activity of each of the peptides was measured using two gram-positive bacteria (Listeria innocua MC2 KCTC 3658 and Staphylococcus aureus ATCC 6538) and three gram-negative bacteria (Pseudomonas aeruginosa ATCC 27853, Salmonella ATCC 19430, and Escherichia coli KCTC 1682). 50 μl of each of the five bacterial strains were prepared, mixed with 5 ml of 3.7% BHI, and then cultured overnight under conditions of 37° C. and 240 rpm. Thereafter, 50 μl of each of the cultured bacterial strains was mixed with 5 ml of 3.7% BHI, and cultured for 2 hours under conditions of 37° C. and 240 rpm. Each of the cultured bacterial strains was diluted with a 0.037% BHI solution to a concentration of 1×10^8 CFU/ml.
A dissolved synthetic peptide was diluted twofold, stepwise, with BHIB in a 96 well-plate. […] After the incubation, a change in optical density at 600 nm was measured using Microplate Reader Multiskan FC (Thermo Scientific, Waltham, Mass., USA), and a range of the MIC was set as the lowest concentration of a peptide in which the growth of bacteria starts to be inhibited. […]

[5] = at a concentration of 200 μM or less; cited from earlier work
[6] = tested on: gram-positive and gram-negative bacteria; conditions: cited from earlier work

| Substance | IC50 at 24 h ([1]; African green monkey) | IC50 at 24 h ([1]; Chinese hamster) | IC50 at 24 h ([1]; human) | IC50 at 24 h [2] | IC50 at 24 h ([1]; mouse) | cytotoxicity compared with YK3 [3] | antibacterial activity (MIC experiment, FIG. 2) [4] | hemolytic action [5] | growth inhibition / antimicrobial functionality [6] |
| --- | --- | --- | --- | --- | --- | --- | --- | --- | --- |
| NKVKEWIKYLKSLFS [YK3, NKVKE WIKYL KSLFS] | 99.1 µM | 56.2 µM | 94 µM | – | – | – | – | – | – |
| NKVKEWIKYLKSKFK [YK8, NKVKE WIKYL KSKFK] | > 100 µM | 71.9 µM | > 100 µM | > 100 µM | > 100 µM | lower cytotoxicity than the YK3 peptide | – | – | – |
| H-NKVKEWIKYLKSLFK-OH [YK5, NKVKE WIKYL KSLFK] | > 100 µM | 57 µM | > 100 µM | > 100 µM | > 100 µM | lower cytotoxicity than the YK3 peptide | effective antibacterial activity against the five strains when used at a low concentration | – | – |
| NKVKEWWKWLKKL [YK11, NKVKE WWKWL KKL] | 83.7 µM | 86.8 µM | > 100 µM | 96.6 µM | > 100 µM | lower cytotoxicity than the YK3 peptide | – | – | – |
| NTVKETIKYLKSLFSHAFEVVKT (NTVKETIKYLKSLFSHAFEVVKT; LPcin-1 (23mer)) [LPcin-I, wild-type lactophoricin from cow milk, 23 amino acid residues, carboxyl terminal 113 to 135 region of PP3] | – | – | – | – | – | – | – | does not have a hemolytic action | inhibits the growth of both gram-positive and gram-negative bacteria |
